Experimental data reported in patent US20250388605A1, “HETEROBIFUNCTIONAL COMPOUNDS AND METHODS OF TREATING DISEASE” (Halda Therapeutics OpCo, Inc., priority 2022, published 2025).

Tests used:
VCaP cells = assay: Cellular growth inhibition assay for VCaP cells, CellTiter-Glo; assay type: cell-based, human; conditions: 72 hours
In short: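 GI50 values come from four-parameter curve fits of luminescence data normalized to a zero baseline. Compound, in medium with 0.5% DMSO, was added one day after plating and left for 72 h before CellTiter-Glo 2.0 addition.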

BRD4-BD1 = target: T1, BRD4-BD1 (Homo sapiens, UniProt O60885); assay: Binding affinity to BRD4-BD1 (bromoKdELECT assay); conditions: 11-point 3-fold dilution series
T1 construct: made in house; host or cells: T7 phage grown in an E. coli host derived from the BL21 strain

BRD4-BD2 = target: T2, BRD4-BD2 (Homo sapiens, UniProt O60885); assay: Binding affinity to BRD4-BD2 (bromoKdELECT assay); conditions: 11-point 3-fold dilution series
T2 construct: made in house; host or cells: T7 phage grown in an E. coli host derived from the BL21 strain

Compound	GI50 (VCaP cells; Homo sapiens) [nM]	Kd (BRD4-BD1) [nM]	Kd (BRD4-BD2) [nM]	GI50 (VCaP cells) [nM]
CN(c1ccc(Oc2cccc(N3CC(N4CCN(c5ncc(C(=O)N[C@H]6C(C)(C)[C@H](Oc7ccc(C#N)c(Cl)c7)C6(C)C)cn5)CC4)C3)c2F)c(-c2cn(C)c(=O)c3[nH]ccc23)c1)S(=O)(=O)C1CC1 [Compound I-91]	< 500	50 to 500	< 50	–
Cn1cc(-c2cc(C(C)(C)O)ccc2Oc2cccc(N3CC(OC4CCN(c5ncc(C(=O)N[C@H]6C(C)(C)[C@H](Oc7ccc(C#N)c(Cl)c7)C6(C)C)cn5)CC4)C3)c2F)c2cc[nH]c2c1=O [Compound I-190]	–	500 to 2500	50 to 500	< 500
Cn1cc(-c2cc(C(C)(C)O)ccc2Oc2cccc(OCCC3CCN(c4ncc(C(=O)N[C@H]5C(C)(C)[C@H](Oc6ccc(C#N)c(Cl)c6)C5(C)C)cn4)CC3)c2)c2cc[nH]c2c1=O [Compound I-156]	–	500 to 2500	50 to 500	> 3000
CCS(=O)(=O)Nc1ccc(Oc2cccc(OCCOC3CCN(c4ncc(C(=O)N[C@H]5C(C)(C)[C@H](Oc6ccc(C#N)c(Cl)c6)C5(C)C)cn4)CC3)c2)c(-c2cn(C)c(=O)c3[nH]ccc23)c1 [Compound I-6]	< 500	> 2500	50 to 500	–
Cn1cc(-c2cc(C(C)(C)O)ccc2Oc2cccc(CCCN3CCN(c4ncc(C(=O)N[C@H]5C(C)(C)[C@H](Oc6ccc(C#N)c(Cl)c6)C5(C)C)cn4)CC3)c2F)c2cc[nH]c2c1=O [Compound I-143]	< 500	50 to 500	< 50	–
CCS(=O)(=O)Nc1ccc(Oc2cccc(OCCOC3CCN(c4ncc(C(=O)N[C@H]5C(C)(C)[C@H](Oc6ccc(C#N)c(Cl)c6)C5(C)C)cn4)CC3)n2)c(-c2cn(C)c(=O)c3[nH]ccc23)c1 [Compound I-47, N-((1r, 3r)-3-(3-chloro-4-cyanophenoxy)-2,2,4,4-tetra-methylcyclobutyl)-2-(4-(2-((6-(4-(ethylsulfonamido)-2-(6-methyl-7-oxo-6,7-dihydro-1H-pyrrolo[2,3-c]pyridin-4-yl)phenoxy)pyridin-2-yl)oxy)ethoxy)piperidin-1-yl)pyrimidine-5-carboxamide]	< 500	> 2500	< 50	–
Cn1cc(-c2cc(C(C)(C)O)ccc2Oc2cccc(N3CC(N4CCN(c5ncc(C(=O)N[C@H]6C(C)(C)[C@H](Oc7ccc(C#N)c(Cl)c7)C6(C)C)cn5)CC4)C3)c2)c2cc[nH]c2c1=O [Compound I-105]	< 500	500 to 2500	< 50	–
CCS(=O)(=O)Nc1ccc(Oc2cccc(OCCOCCOCCOCCOCCOC3CCN(c4ncc(C(=O)N[C@H]5C(C)(C)[C@H](Oc6ccc(C#N)c(Cl)c6)C5(C)C)cn4)CC3)c2)c(-c2cn(C)c(=O)c3[nH]ccc23)c1 [Compound I-8]	< 500	50 to 500	< 50	–

Now from value to molecule:

GI50 (VCaP cells; Homo sapiens) [nM]	Kd (BRD4-BD1) [nM]	Kd (BRD4-BD2) [nM]	GI50 (VCaP cells) [nM]	Compound
< 500	50 to 500	50 to 500	–	Cn1cc(-c2cc(C(C)(C)O)ccc2Oc2cccc(N3CC(N4CCN(c5ncc(C(=O)N[C@H]6C(C)(C)[C@H](Oc7ccc(C#N)c(Cl)c7)C6(C)C)cn5)CC4)C3)c2F)c2cc[nH]c2c1=O [Compound I-92, N-((1r, 3r)-3-(3-chloro-4-cyanophenoxy)-2,2,4,4-tetramethylcyclobutyl)-2-(4-(1-(2-fluoro-3-(4-(2-hydroxypropan-2-yl)-2-(6-methyl-7-oxo-6,7-dihydro-1H-pyrrolo[2,3-c]pyridin-4-yl)phenoxy)phenyl)azetidin-3-yl)piperazin-1-yl)pyrimidine-5-carboxamide]
< 500	> 2500	> 2500	–	CCS(=O)(=O)Nc1ccc(Oc2cccc(OCCOC3CCN(c4ncc(C(=O)N[C@H]5C(C)(C)[C@H](Oc6ccc(C#N)c(Cl)c6)C5(C)C)cn4)CC3)c2)c(-c2cn(C)c(=O)c3c2ccn3C)c1 [Compound I-121]
< 500	500 to 2500	< 50	–	Cn1cc(-c2cc(C(C)(C)O)ccc2Oc2cccc(OCCN3CCN(c4ncc(C(=O)N[C@H]5C(C)(C)[C@H](Oc6ccc(C#N)c(Cl)c6)C5(C)C)cn4)CC3)c2F)c2cc[nH]c2c1=O [Compound I-99]
< 500	> 2500	> 2500	–	Cn1cc(-c2ccccc2Oc2cccc(OCCN3CCN(c4ncc(C(=O)N[C@H]5C(C)(C)[C@H](Oc6ccc(C#N)c(Cl)c6)C5(C)C)cn4)CC3)c2)c2cc[nH]c2c1=O [Compound I-98]
< 500	50 to 500	< 50	–	CCS(=O)(=O)Nc1ccc(Oc2cccc(OCCOC3CCN(c4ccc(C(=O)N[C@H]5C(C)(C)[C@H](Oc6ccc(C#N)c(Cl)c6)C5(C)C)nn4)CC3)c2)c(-c2cn(C)c(=O)c3[nH]ccc23)c1 [Compound I-11]
< 500	500 to 2500	50 to 500	–	Cn1cc(-c2cc(C(C)(C)O)ccc2Oc2cccc(OCCN3CCN(c4ncc(C(=O)N[C@H]5C(C)(C)[C@H](Oc6ccc(C#N)c(Cl)c6)C5(C)C)cn4)CC3)c2)c2cc[nH]c2c1=O [Compound I-96]
< 500	< 50	< 50	–	CCS(=O)(=O)c1ccc(OCC(CCCN2CCN(c3ncc(C(=O)NC4C(C)(C)C(Oc5ccc(C#N)c(Cl)c5)C4(C)C)cn3)CC2)C2CC2)c(-c2cn(C)c(=O)c3[nH]ccc23)c1 (stereo not drawn) [Compound I-231, N-[3-(3-chloro-4-cyano-phenoxy)-2,2,4,4-tetramethyl-cyclobutyl]-2-[4-[4-cyclopropyl-5-[4-ethylsulfonyl-2-(6-methyl-7-oxo-1H-pyrrolo[2,3-c]pyridin-4-yl)phenoxy]pentyl]piperazin-1-yl]pyrimidine-5-carboxamide]
< 500	500 to 2500	< 50	–	CCS(=O)(=O)Nc1ccc(Oc2cccc(OCCOCCOC3CCN(c4ncc(C(=O)N[C@H]5C(C)(C)[C@H](Oc6ccc(C#N)c(Cl)c6)C5(C)C)cn4)CC3)c2)c(-c2cn(C)c(=O)c3[nH]ccc23)c1 [Compound I-13]
–	> 2500	< 50	< 500	Cn1cc(-c2cc(C(C)(C)O)ccc2Oc2cccc(CCOC3CCN(c4ncc(C(=O)N[C@H]5C(C)(C)[C@H](Oc6ccc(C#N)c(Cl)c6)C5(C)C)cn4)CC3)c2)c2cc[nH]c2c1=O [Compound I-193]
